≈ marks a conversion by molar mass, not a printed value.
What was measured:
[1] = system: Carbapenemase-producing P. aeruginosa (7); assay: MIC and MBC testing; type: cell-based, Pseudomonas aeruginosa; conditions: 7 carbapenemase-producing P. aeruginosa; fixed BLI concentration (μg/mL) in label
[2] = system: P. aeruginosa CDC-90 (KPC-5); assay: Lethal mouse model of systemic infection; conditions: Pseudomonas aeruginosa, in Mus musculus, sc, read-out: ED50 of MEM (95% confidence intervals)
[3] = system: Enterobacterales (154), CDC AR Bank; assay: MIC, broth microdilution; type: cell-based
[4] = system: A. baumannii CDC-303 (OXA-23, 66); assay: Lethal mouse model of systemic infection; conditions: Acinetobacter baumannii, in Mus musculus, sc, read-out: ED50 of MEM, extrapolated from the probit analysis
[5] = system: A. baumannii CDC-83 (NDM-1, OXA-23, 69); assay: MIC, broth microdilution; type: cell-based, Acinetobacter baumannii; conditions: agent alone
[6] = molecular target: OXA-23 (Acinetobacter baumannii, UniProt Q9L4P2); assay: Ki app determination (Waley's method)
[7] = system: Prevotella histicola KUB2989; assay: MIC, agar dilution, reference strains of anaerobic bacteria; type: cell-based
[8] = molecular target: CTX-Ms and PDC-11; assay: Ki app determination, range over enzymes; conditions: read-out: Ki app values, range; range over CTX-Ms and PDC-11
[9] = system: Prevotella intermedia KUB2991; assay: MIC, agar dilution, reference strains of anaerobic bacteria; type: cell-based
[10] = system: Peptostreptococcus anaerobius ATCC 27337; assay: as above; type: cell-based; conditions: ATCC27337
[11] = molecular target: OXA-24 (Acinetobacter baumannii, UniProt Q8RLA6); assay: Ki app determination (Waley's method)
[12] = molecular target: CTX-M-27 (Escherichia coli, UniProt Q840M4); assay: Ki app determination (Waley's method)
[13] = system: Finegoldia magna ATCC 29328; assay: MIC, agar dilution, reference strains of anaerobic bacteria; type: cell-based; conditions: ATCC29328
[14] = molecular target: NDM-7 (Klebsiella pneumoniae, UniProt C7C422, D130N/M154L); assay: Ki app determination (Waley's method)
[15] = system: Clostridioides difficile ATCC 43255; assay: MIC, agar dilution, reference strains of anaerobic bacteria; type: cell-based; conditions: ATCC43255
[16] = molecular target: KPC-2 (Klebsiella pneumoniae, UniProt Q9F663); assay: Ki app determination (Waley's method)
[17] = molecular target: SHV-2 (Klebsiella pneumoniae, UniProt P0A9Z8); assay: Ki app determination (Waley's method)
[18] = system: Fusobacterium varium ATCC 27725; assay: MIC, agar dilution, reference strains of anaerobic bacteria; type: cell-based; conditions: ATCC27725
[19] = molecular target: class A carbapenemase KPCs; assay: Ki app determination, range over enzymes; conditions: read-out: Ki app values, range
[20] = system: Prevotella buccae KUB2992; assay: MIC, agar dilution, reference strains of anaerobic bacteria; type: cell-based; conditions: Segatella buccae
[21] = system: Fusobacterium nucleatum ATCC 25586; assay: as above; type: cell-based; conditions: ATCC25586
[22] = system: 20 anaerobic strains (including Clostridium perfringens, Atopobium rimae, Bacteroides spp., and Prevotella spp.); type: cell-based
[23] = molecular target: class D carbapenemases, OXAs from Acinetobacter spp., and OXA-48; assay: Ki app determination, range over enzymes; conditions: read-out: Ki app, range; range over OXAs from Acinetobacter spp. and OXA-48
[24] = Intrinsic antibacterial activity, MIC; type: cell-based
[25] = molecular target: OXA-65 (Acinetobacter baumannii, UniProt Q58XD3); assay: Ki app determination (Waley's method)
[26] = molecular target: CTX-M-14 (Escherichia coli, UniProt Q9L5C7); assay: Ki app determination (Waley's method)
[27] = system: Bacteroides thetaiotaomicron ATCC 29741; assay: MIC, agar dilution, reference strains of anaerobic bacteria; type: cell-based; conditions: ATCC29741
[28] = system: Clostridioides difficile ATCC BAA-1803; assay: as above; type: cell-based; conditions: ATCCBAA1803
[29] = system: Clostridioides difficile ATCC BAA-1870; assay: as above; type: cell-based; conditions: ATCCBAA1870
[30] = molecular target: OXA-72 (Acinetobacter baumannii, UniProt Q5XQU0); assay: Ki app determination (Waley's method)
[31] = CLSI breakpoints, marked c: breakpoints for β-lactam alone
[32] = fixed concentration (μg/mL) in label

C[C@@H](O)[C@H]1C(=O)N2C(C(=O)O)=C(S[C@@H]3CN[C@H](C(=O)N(C)C)C3)[C@H](C)[C@H]12 [MEM, meropenem]
MBC range [1]: 64 to 256 µg/mL
MIC Range [1]: 64 to 256 µg/mL
ED50 [2]: 54.8 mg/kg
CLSI MIC interpretation I (intermediate) [3, 31]: 9.7%
CLSI MIC interpretation R (resistant) [3, 31]: 50%
CLSI MIC interpretation S (susceptible) [3, 31]: 40.3%
MIC50 [3, 32]: 2 µg/mL (≈ 5.22 µM)
MIC90 [3, 32]: 32 µg/mL (≈ 83.4 µM)
ED50 [4]: 6550 mg/kg

CC(C)(O/N=C(\C(=O)N[C@@H]1C(=O)N2C(C(=O)[O-])=C(C[N+]3(CCNC(=O)c4ccc(O)c(O)c4Cl)CCCC3)CS[C@H]12)c1csc(N)n1)C(=O)O [FDC, cefiderocol]
MIC [5]: 16 µg/mL (≈ 21.3 µM)

N[C@@H](C(=O)N1CC(Oc2ccc3c(c2C(=O)O)OB(O)CC3)C1)c1c[nH]cn1 [KSP-1007, 7-({1-[(2R)-2-amino-2-(1H-imidazol-4-yl)acetyl]azetidin-3-yl}oxy)-2-hydroxy-3,4-dihydro-2H-1,2-benzoxaborinine-8-carboxylic acid]
Ki [6]: 4.07 ± 0.237 nM
MIC [7]: 8 µg/mL (≈ 20.7 µM)
Ki [8]: 0.0664 to 0.79 nM
MIC [9]: 4 µg/mL (≈ 10.4 µM)
MIC [10]: > 256 µg/mL
Ki [11]: 1.09 ± 0.387 nM
Ki [12]: 0.159 ± 0.0228 nM
MIC [13]: 128 µg/mL (≈ 331 µM)
Ki [14]: 53 ± 30.2 nM
MIC [15]: > 256 µg/mL
Ki [16]: 1.46 ± 0.0574 nM
Ki [17]: 361 ± 127 nM
MIC [18]: > 256 µg/mL
Ki [19]: 0.836 to 2.19 nM
MIC [20]: 8 µg/mL (≈ 20.7 µM)
MIC [21]: 32 µg/mL (≈ 82.9 µM)
MICs, range [22]: 2 to 256 µg/mL
Ki [23]: 0.621 to 5.78 nM
MIC [24]: ≥ 64 µg/mL
Ki [25]: 5.44 ± 1.21 nM
Ki [26]: 0.153 ± 0.0235 nM
MIC [27]: 64 µg/mL (≈ 166 µM)
MIC [28]: > 256 µg/mL
MIC [29]: > 256 µg/mL
Ki [30]: 0.621 ± 0.0248 nM
